Assay results: ChEMBL document CHEMBL1146425, “Two new antiprotozoal 5-methylcoumarins from Vernonia brachycalyx” (J Nat Prod, 1997); call rule not given here
pIC50: −log10 of the molar value.

Legend:
[1] = tested on: Plasmodium falciparum; test: Antiplasmodial activity against chloroquine-sensitive Plasmodium falciparum 3D7 by [G-3H]hypoxanthine uptake; assay type: functional, organism-based
[2] = tested on: Plasmodium falciparum; test: Antiplasmodial activity against chloroquine-resistant Plasmodium falciparum Dd2 by [G-3H]hypoxanthine uptake; assay type: functional, organism-based
[3] = tested on: Leishmania major; test: Antileishmanial activity against Leishmania major promastigotes assessed as inhibition of [3H]thymidine incorporation after 18 hrs by scintillation counting; assay type: functional, organism-based
[4] = Inhibition of phytohemagglutininin A-induced human lymphocyte proliferation assessed as radiolabeled thymidine uptake; assay type: cell-based
[5] = Inhibition of phytohemagglutininin A-induced human lymphocyte proliferation assessed as radiolabeled thymidine uptake at < 300 uM; assay type: cell-based

SMILES	pIC50 [1]	pIC50 [2]	pIC50 [3]	pIC50 [4]	Activity [5]
Cc1cccc2oc(=O)c3c(c12)O[C@@H](C)[C@@]3(C)CC(=O)[C@@H]1OC1(C)C	3.80	4.27	4.43	3.50	Not Active
Cc1cccc2oc(=O)c3c(c12)O[C@H](C)[C@@]3(C)CC(=O)[C@@H]1OC1(C)C [CYCLOISOBRACHYCOUMARINONE EPOXIDE]	3.95	4.27	4.87	2.74	
